Reference: US10821128B2, “Treatment of cancer by systemic administration of Dbait molecules” (ONXEO, priority 2016, dated 2020)

Columns and labels:
[1] = tested on: HCT116; test: In vitro proliferation assay (live cell counts); type: cell-based, human
Protocol: (§1) CRC cell lines; HT29 (mutated p53, ATCC: HTB-38) and HCT116 (wild-type p53, ATCC: CCL-247) were purchased directly from ATCC. These cells were authenticated by ATCC by generating human short tandem repeat profiles by simultaneously amplifying multiple STR loci and amelogenin (for gender determination) using the Promega PowerPlex® Systems. These cells were cultured in the laboratory for less than 6 months from the date of purchase in DMEM medium supplemented with 10% fetal bovine serum, 1% sodium pyruvate, […] (Invitrogen, Carlsbad, Calif.), when the current study was performed. HT29 cell line stably expressing luciferase was established in-house using a pGL4.5 luciferase reporter vector (luc2/CMV/Hygro) (Promega). HT29 luciferase cells were supplemented with 200 μg/ml hygromycin B. All cell lines were additionally subjected to mycoplasma testing in-house and were free of mycoplasma contamination (Biovalley, France).
(§2) Cells were transfected with 2.5 μgs of Dbait (5′-[…]-(H) […]-3′ SEQ ID No 9) (Eurogentec, Belgium) where H is a hexaethyleneglycol linker and underlined nucleotides are phosphorothioates. The cells were sham transfected with an 8 bp oligonucleotide control (8H) complexed with 11 kDa polyethyleneimine (PEI) as previously described (Quantz et al, 2009, PloS one, 4, e6298).
(§3) Cells were seeded at a density of 3×10^4 cells/60 mm dishes and transfected with Dbait. Following treatment, cells were washed and left untreated or treated with a combination of 5 μM of oxaliplatin (OXA, Sigma) and 2.5 μM of 5-fluouracil (5-FU, Sigma) and live cell counts were performed on days 1, 3, 5, 6, 7 and 9.

[2] = tested on: HT29; test: In vitro proliferation assay (live cell counts); type: cell-based, human
Protocol: as §1, §2, §3

[3] = tested on: HCT116; test: Clonogenic survival assay; type: cell-based, human
Protocol: as §1, §2
(§4) Cells were transfected with Dbait and left untreated or treated with 5 μM of OXA and 2.5 μM of 5-FU for 1 hr. The cells were diluted, allowed to grow for 14 days and the clones were stained with crystal violet and counted.

[4] = tested on: HT29; test: Clonogenic survival assay; type: cell-based, human
Protocol: as §1, §2, §4

[5] = tested on: pan-nuclear phosphorylation of H2AX in HCT116; test: γH2AX immunofluorescence (DNA-PK activation); type: cell-based, human
Protocol: (§5) The inventors have previously shown that Dbait acts by activating DNA-PK kinase, which phosphorylate numerous targets including the histone variant H2AX.
(§6) γH2AX immunofluorescence was performed as described previously using a monoclonal anti-phospho-Histone H2A.X (Ser139) Antibody, clone JBW301 (1:500 dilution; 05-636, Millipore, USA) (9).

[6] = tested on: pan-nuclear phosphorylation of H2AX in HT29; test: γH2AX immunofluorescence (DNA-PK activation); type: cell-based, human
Protocol: as §5, §6

[7] = tested on: MDA-MB-231 tumor; test: DT01 with carboplatin in MDA-MB-231 TNBC model; type: in vivo, athymic nude mouse; settings: carboplatin alone treated group; 177 days of the experiment
Protocol: Treatment was administered in 3 cycles with a 2 week gap between cycles either alone or in association with carboplatin. Only one dose of carboplatin was injected per cycle of DT01 treatment (2nd day of each cycle). The dose of carboplatin was 50 mg/kg per cycle. Treatments were performed over 7 weeks (3 cycles of treatment).
Antitumor activity was evaluated by measuring tumor volume during and after treatment. DT01 was administered intraperitoneally during 3 sessions of 5 days treatment with two weeks of rest between each session. Carboplatin was administered once a week on the second day of each DT01 treatment cycle.
The MDA-MB231 cell line is derived from a human breast adenocarcinoma and can be ordered at the ATCC. The MDA-MB231 cells were grafted in the mammary fat pad with 10·10^6 cells re-suspended in 0.1 ml of DMEM with no additive. The athymic nude mouse is immunodeficient, thus enabling the xenotransplantation and growth of human tumors.

[8] = single treatment (Dbait alone, or OXA and 5-FU alone)
[9] = combination of Dbait with chemotherapy (OXA/5-FU), p=0.05

Row | Compound | cell proliferation (number of living cells) [1, 8] | level of proliferation compared to chemotherapy alone ([1]; transfected with Dbait prior to OXA/5-FU, day 9, p<0.001) | cell proliferation (number of living cells) [2, 8] | level of proliferation compared to chemotherapy alone ([2]; transfected with Dbait prior to OXA/5-FU, day 9, p<0.02) | lethality ([3]; Dbait treatment alone, p<0.01) | clonogenic survival [3, 9] | clonogenic survival [4, 9] | clonogenic survival ([4]; single treatment (Dbait alone, or chemotherapy alone p=0.08)) | activity by pan-nuclear phosphorylation of H2AX [5] | activity by pan-nuclear phosphorylation of H2AX [6] | abnormal death [7]
1 | 5′-GCTGTGCCCACAACCCAGCAAACAAGCCTAGA-(H) TCTAGGCTTGTTTGCTGGGTTGTGGGCACAGC-3′ (hexaethyleneglycol linker; phosphorothioates; nucleic acid molecule Id; note=“at the 3′ end of the complementary strand the three last nucleotides with phosphorothioate or methylphosphonate backbone”; modified_base (1)..(3) mod_base= phosphorothioate or methylphosphonate backbone; (1)..(1) at the 5′ end, Lm = carboxamido oligoethylene glycol + C = single or double chain fatty acids, cholesterol, sugars, peptides or proteins; stem_loop (1)..(3) [Dbait] | no effect on cell proliferation | significantly reduced | no effect on cell proliferation | significantly reduced | approximately 30% | significant reduction in survival | significant reduction in survival | no significant effect | confirmed the activity | confirmed the activity | 
2 | N.N.O=C([O-])C1(C(=O)[O-])CCC1.[Pt+2] [carboplatin] |  |  |  |  |  |  |  |  |  |  | one
